Source: patent US11214803B2, “Modulators of YAP1 expression” (Ionis Pharmaceuticals, Inc., priority 2019, dated 2022)
Strand notation (5' to 3'): a small letter for the sugar, then the base; units joined by * are phosphorothioate-linked, units joined directly phosphodiester-linked; [ ] holds rarer units or linkages, { } end groups; capitals alone tell only the bases. e = 2'-O-(2-methoxyethyl) (MOE); k = constrained ethyl (cEt); [5mC] = 5-methylcytosine; d = 2'-deoxy (DNA)

Key:
[1] = Tolerability in CD-1 mice, plasma chemistry markers (Example 16); format: in vivo; details: male CD-1 mice, 50 mg/kg s.c. twice a week for four weeks (8 treatments), day 27
Method: (§1) CD-1 mice were treated with modified oligonucleotides selected from studies described above and evaluated for changes in the levels of various plasma chemistry markers.
(§2) Groups of four male CD-1 mice at 4-5 weeks of age (obtained from Charles River) were injected subcutaneously twice a week for four weeks (for a total of 8 treatments) with 50 mg/kg of modified oligonucleotides. One group of male CD-1 mice was injected with PBS. Mice were euthanized on day 27 post start of treatment (24 hrs following the final administration).

[2] = Tolerability in CD-1 mice, body and organ weights (Example 16); format: in vivo; details: male CD-1 mice, 50 mg/kg s.c. twice a week for four weeks (8 treatments), end of study (day 27)
Method: as §2
(§3) Body weights of CD-1 mice were measured at the end of the study, and the average body weight for each group is presented in the table below. Modified oligonucleotides that caused any changes in organ weights outside the expected range for modified oligonucleotides were excluded from further studies.

[3] = Tolerability in Sprague-Dawley rats, body and organ weights (Example 21); format: in vivo; details: male Sprague-Dawley rats, 50 mg/kg s.c. weekly for 6 weeks (7 doses); for Kidney weight / Liver weight / Spleen weight: end of study; for body weight: terminal, prior to necropsy
Method: Terminal body weight was measured prior to necropsy. Ionis oligonucleotides that caused any changes in organ weights outside the expected range for modified oligonucleotides were excluded from further studies.

[4] = Tolerability in Sprague-Dawley rats, plasma chemistry markers (Example 21); format: in vivo; details: male Sprague-Dawley rats, 50 mg/kg s.c. weekly for 6 weeks (7 doses), 48 hours after last dose
Method: Sprague-Dawley rats are a multipurpose model used for safety and efficacy evaluations. The rats were treated with Ionis modified oligonucleotides from the studies described in the Examples above and evaluated for changes in the levels of various plasma chemistry markers.

Yap1 mRNA [5] = assay: Dose-dependent inhibition of human Yap1 in SNU-449 cells (Example 9, RTS36584); format: cell-based; details: free uptake; for % UTC (Yap1 mRNA): approximately 48 hours; for IC50: linear regression on a log/linear plot
How it was run: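 SNU-449 cells (10,000/well) took up modified oligonucleotides by free uptake at a range of doses for about 48 h. Yap1 mRNA was quantified with primer-probe set RTS36584, normalised to RIBOGREEN total RNA and expressed as % untreated control; IC50 from linear regression on log/linear plot.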

[6] = Tolerability in Sprague-Dawley rats, kidney function, urine total protein to creatinine ratio (Example 21); details: male Sprague-Dawley rats, 50 mg/kg s.c. weekly for 6 weeks (7 doses)
Method: Male Sprague-Dawley rats were maintained on a 12-hour light/dark cycle and fed ad libitum with Purina normal rat chow. Groups of 4 Sprague-Dawley rats each were weekly injected subcutaneously with 50 mg/kg of Ionis oligonucleotide for 6 weeks (total 7 doses). Forty-eight hours after the last dose, the rats were euthanized; and organs, urine and plasma were harvested for further analysis.
To evaluate the effect of Ionis oligonucleotides on kidney function, urinary levels of total protein and creatinine were measured using an automated clinical chemistry analyzer (Hitachi Olympus AU400c, Melville, N.Y.).

[7] = Tolerability in CD-1 mice, body and organ weights (Example 17); format: in vivo; details: male CD-1 mice, 50 mg/kg s.c. twice a week for four weeks (8 treatments), end of study (day 27)
Method: as §2, §3

[8] = Tolerability in CD-1 mice, plasma chemistry markers (Example 17); format: in vivo; details: male CD-1 mice, 50 mg/kg s.c. twice a week for four weeks (8 treatments), day 27
Method: as §1, §2

Yap1 mRNA [9] = assay: Inhibition of human Yap1 mRNA in SNU449 hepatocellular carcinoma xenograft tumors (Example 26); format: in vivo; details: SNU449 xenografts in NSG mice, 50 mg/kg twice weekly for five days, relative to PBS treated animals
Method: A SNU449 hepatocellular carcinoma xenograft tumor model was used to evaluate activity of modified oligonucleotides targeted to human Yap1. Ten million SNU449 cells in 30% matrigel were implanted subcutaneously into the flanks of female NOD Cg-Prkdcscid ll2rgtm1Wjl/SzJ (NSG) mice (from Jackson Laboratory) at 4-6 weeks of age. When tumors reached an average volume of 100 mm^3, approximately two weeks post-implantation, groups of four mice each were administered at 50 mg/kg twice weekly with modified oligonucleotides for five days. Tumors were collected and tested for Yap1 mRNA knockdown by RT-qPCR. Yap1 mRNA levels were measured as previously described using the Human Yap1 primer-probe set RTS4814. Yap1 mRNA levels were normalized to actin-beta content, as measured by primer probe set RTS5002. Results are presented in the tables below as percent control of the amount of Yap1 mRNA relative to PBS treated animals (% control).

Work on “1076186 (kA*kT*kT*dT*dA*dG*dG*dA*dT*dG*d[5mC]*dA*dT*kG*kG*kT) [compound 1076186]” yielded an ALT [1] of 74 U/L, an AST [1] of 97 U/L and an Albumin [1] of 2.5 g/dL. For the same substance, the BUN [1] was 23 mg/dL, the TBIL [1] was 0.16 mg/dL and the Kidney weight [2] was 0.58 g. The Liver weight [2] was 2.42 g, the Spleen weight [2] was 0.16 g and the body weight [2] was 37 g.
“1198612 (kA*kA*kG*dT*dG*dT*dA*dT*dG*dT*d[5mC]*dA*kG*kA*kA*eG) [compound 1198612]” showed a Kidney weight [3] of 3.60 g, a Liver weight [3] of 17 g and a Spleen weight [3] of 2.33 g. For the same substance, the body weight [3] was 345 g, the ALT [4] was 74 U/L and the AST [4] was 91 U/L. For the same substance, the BUN [4] was 31 mg/dL, the TBIL [4] was 0.12 mg/dL and the “% UTC (Yap1 mRNA)” value (Yap1 mRNA [5]; 31.3 nM) was 44 % UTC. For the same substance, the “% UTC (Yap1 mRNA)” value (Yap1 mRNA [5]; 125.0 nM) was 12 % UTC, the “% UTC (Yap1 mRNA)” value (Yap1 mRNA [5]; 500.0 nM) was 2 % UTC and the “% UTC (Yap1 mRNA)” value (Yap1 mRNA [5]; 2000.00 nM) was 0 % UTC. For the same substance, the IC50 (Yap1 mRNA [5]) was less than 30 nM and the “URINE P/C ratio (total protein to creatinine ratio)” value (shortened to “URINE P/C ratio”) [6] was 11.
Substance “1198874 (kA*kA*dG*dT*dG*dT*dA*dT*dG*dT*d[5mC]*kA*eG*kA*eA*kG) [compound 1198874]” has a Kidney weight [3] of 3.67 g, a Liver weight [3] of 20 g and a Spleen weight [3] of 2.61 g. The body weight [3] was 372 g, the ALT [4] was 73 U/L and the AST [4] was 102 U/L. The BUN [4] was 22 mg/dL, the TBIL [4] was 0.16 mg/dL and the “% UTC (Yap1 mRNA)” value (Yap1 mRNA [5]; 31.3 nM) was 36 % UTC. For the same substance, the “% UTC (Yap1 mRNA)” value (Yap1 mRNA [5]; 125.0 nM) was 8 % UTC, the “% UTC (Yap1 mRNA)” value (Yap1 mRNA [5]; 500.0 nM) was 1 % UTC and the “% UTC (Yap1 mRNA)” value (Yap1 mRNA [5]; 2000.00 nM) was 0 % UTC. For the same substance, the IC50 (Yap1 mRNA [5]) was less than 30 nM and the “URINE P/C ratio” value [6] was 9.
With “1097037 (kA*kG*kA*dT*dT*dT*dA*dG*dG*dA*dT*dG*d[5mC]*kA*kT*kG; antisense) [compound 1097037]” the Kidney weight [7] was 0.52 g, the Liver weight [7] was 2.33 g and the Spleen weight [7] was 0.21 g. It also gave a body weight [7] of 33 g, an ALT [8] of 73 U/L and an AST [8] of 97 U/L. It also gave a BUN [8] of 23 mg/dL and a TBIL [8] of 0.12 mg/dL.
For “1198615 (kT*kT*kA*dA*dA*dG*dT*dG*dT*dA*dT*dG*kT*k[5mC]*kA*eG) [compound 1198615]”, the “Yap1 mRNA in tumors, % control” value (Yap1 mRNA [9]) was 62 % control, the Kidney weight [3] was 3.01 g and the Liver weight [3] was 16 g. For the same substance, the Spleen weight [3] was 2.35 g, the body weight [3] was 369 g and the ALT [4] was 38 U/L. It also gave an AST [4] of 71 U/L, a BUN [4] of 21 mg/dL and a TBIL [4] of 0.13 mg/dL. For the same substance, the “% UTC (Yap1 mRNA)” value (Yap1 mRNA [5]; 31.3 nM) was 52 % UTC, the “% UTC (Yap1 mRNA)” value (Yap1 mRNA [5]; 125.0 nM) was 23 % UTC and the “% UTC (Yap1 mRNA)” value (Yap1 mRNA [5]; 500.0 nM) was 5 % UTC. The “% UTC (Yap1 mRNA)” value (Yap1 mRNA [5]; 2000.00 nM) was 2 % UTC, the IC50 (Yap1 mRNA [5]) was less than 30 nM and the “URINE P/C ratio” value [6] was 8.
